Results on nine molecules are retold here after article PMC11468294, “Peptide Amphiphiles as Biodegradable Adjuvants for Efficient Retroviral Gene Delivery” (Advanced Healthcare Materials, 2023).

Entries after “also recorded” stand apart in the source; their conditions may differ. Where a SMILES comes first, the peptide text is derived from it. The star is where a group is joined. X2 = CC/C=C\C/C=C\C/C=C\C/C=C\C/C=C\CCCC(=O)*; Fmoc = O=C(OCC1c2ccccc2-c2ccccc21)*; Palmitoyl = CCCCCCCCCCCCCCCC(=O)*; Lauroyl = CCCCCCCCCCCC(=O)*

In series [1] the test system is HIV-1 infection of TZM-bl cells. Description: HIV-1 infection assay (β-galactosidase luminescence reporter). The following applies: infectivity enhancing if n-fold at 1.3 µM larger than 2. It counts as cell-based. Here is the method: HIV‐1 Infection Assay: The effect of peptide fibrils on HIV‐1 infection was studied via a luminescence assay for β‐galactosidase, which was reported by TZM‐bl cells upon infection. 10000 TZM‐bl cells were seeded in 180 µl supplemented DMEM one day prior infection. The cells were inoculated with 20 µl PNF solution 1:1 (v/v) mixed with virus (1:500 dilution) after an incubation time of 10 min. The HIV‐1 infection assay was conducted in three technical replicates and repeated in three independent experiments unless stated otherwise. The assay was conducted as described before.^[ [20] ^]

Series [2] is described as follows: Microscopic aggregation (fluorescence / confocal microscopy, derived count rate). It counts as physicochemical. The following applies: fibrils preformed at 1 mg mL-1 in PBS; ThT or Proteostat stain, widefield or confocal microscopy; derived count rate > 1000 kcps as criterion. Here is the method: (§1) Transmission electron microscopy (TEM) measurements, Thioflavin (ThT), zeta‐potential measurements for fibril characterization, ATR‐IR spectra acquisition and the calculation of β−sheet were prepared and conducted analogous to a previous report.^[ [20], [86] ^] […] Fibrils were defined as distinct, if no visible structures could be identified in fluorescence and brightfield microscopy. […] The derived count rate of the zeta‐potential measurement was used as information on the light scattering intensity and turbidity of the sample as a further indicator for microscopic aggregation.^[ [90] ^]
Fluorescence microscopy: 1 µL Fibrils (1 mg mL^−1) were stained with 9 µL, 50 µM ThT. 10 µL of the stained fibrils (0.1 mg mL^−1) were placed on a microscopy glass. Fluorescence microscopy measurements were performed on a Leica DMi8 microscope with 10x air objective and equipped with a Leica MC170 HD camera with a filter setting λem = 527/30 nm upon excitation at λex = 480/40 nm) and processed with the Leica LASX software.
(§2) 7 Effects of PA modifications on properties and activity
(§3) To investigate the effects of modification in the PA sequence, we created various peptide amphiphiles derived from PA1 by varying the (I) hydrophobic moiety, (II) the linkage chemistry and (III) the peptide sequence (Figure S12, SI chapter 7.1 – 7.3). The color code for sequence representation is yellow for the hydrophobic moiety, blue for cationic amino acids, red for non-polar amino acids, purple for polar uncharged amino acids, and green for anionic amino acids. To be concise, only the summarized information will be discussed, all original data for the peptides are summarized in the (Figure S26 - […]
(§4) Figure S12 Summarized overview of peptide amphiphile library in which systematic variations the original sequence […]
(§5) chemistry and (III) the peptide sequence on infectivity enhancement and degradability (see SI chapter 7.1 – 7.3).
(§6) In the following section a compound is considered infectivity enhancing if n-fold infectivity at 1.3 µM is larger than 2. A compound is considered to form µm-sized aggregates if visible particles were observed in widefield microscopy (brightfield or ThT-staining filter, objective 10x) or confocal […]
(§7) than 1000 kcps in Zeta-Potential measurements.
(§8) For the degradability only the PAs which could be stained with Proteostat (Figure S26) and were visible in microscopy (Figure S15, Figure S18, Figure S21, and Figure S22) were studied in detail. To determine […]
whether a PA is degraded or not, Proteostat stained PAs which are added to Hela cells (2 µg peptide added to 20.000 cells) and studied via confocal laser scanning microscopy. […]
In the following, we will distinguish between three aggregation types for fibrillar structures: Fibrils which were not aggregating (below resolution limit of the microscope, approx. 650 nm), moderately aggregating (< 50 µm2) and aggregating to large particles (> 50 µm 2).
7.1 Effects of hydrophobic moiety exchange on properties and activity
To investigate the effects of varying hydrophobic moieties on assembly, aggregation and activity , we

The next series concerns HeLa cells. It counts as in vitro ADME. The following applies: for degradability by cells (in words): HeLa cells, 2 µg peptide added to 20,000 cells, d0 (30 min) vs d3, degradable if number and size of aggregates are reduced after 3 days. The protocol:
Confocal laser scanning microscopy and degradation study with PA library and HeLa cells: Confocal laser scanning microscopy studies were performed for the visualization of the cell‐PA interaction. HeLa cells were seeded one day prior to conducting the assay (20000/well) in an 8‐well IBIDI slide. 2 µL of the preformed peptide fibrils (1 mg mL^−1) were diluted with 2 µL Proteostat (Enzo Life Science, 1 µL stock in 99 µL PBS) and incubated for 10 min and further diluted with medium to receive a final peptide concentration of 10 µg mL^−1. The nucleus of the HeLa cells was stained with Hoechst 33 342 (NucBlue, Thermo Fisher Scientific). The peptide solution mixture was transferred to the HeLa cells and incubated for 30 min at 37°C before washing three times with PBS. The interaction of fibril clusters with cells was monitored after 30 min incubation time on a Stellaris 8 confocal laser scanning microscope (Leica) equipped with a 20x air objective and laser excitation wavelengths of 405 nm (Hoechst), and 561 nm (Proteostat). For the evaluation of aggregate degradation, the samples were further incubated at 37°C for 3 d and analyzed without any additional washing step. The evaluation of aggregate size and number was conducted by analyzing Proteostat stained aggregates via the 3D objects counter function of ImageJ 1.53f51 for 3 individual measurements (area 1008 µm × 1008 µm). […] The number of aggregates were determined by counting aggregates larger than the threshold 10 µm^2 in an area of 1008 µm × 1008 µm and repeated in three technical triplicates.
as §2, §3, §4, §5, §6, §7, §8
whether a PA is degraded or not, Proteostat stained PAs which are added to Hela cells (2 µg peptide added to 20.000 cells) and studied via confocal laser scanning microscopy. Microscopy is conducted at day 0 (d0, after 30 min of incubation) and at day 3 (d3, after 72 h of incubation). The number of aggregates >10 µm2 is counted via 3D object counter in ImageJ in an area of 1008 µm × 1008 µm.
A PA is considered as degradable if the number and the size of aggregates are reduced after 3 days.
The efficiency is determined by the percentual degradation (aggregate number at d3 / aggregate number at d0). Three technical replicates were evaluated for each sample. A large deviation in number and size of aggregates represents a nonhomogeneous distribution and polymorphism of aggregates.

A short description of series [3]: TEM morphology of peptide assemblies. It counts as physicochemical. The following applies: diluted from DMSO stock (10 mg mL-1) to 1 mg mL-1 in PBS, incubated 1 d at rt. Here is the method: as §1
TEM: 5 µL of fibrils (1 mg mL^−1) were placed on 300 mesh, Formvar layered copper grids. After 10 min incubation time, the grids were staining with 4% uranyl acetate solution for 2.5 min. After
three washing steps with dd H2O excess solvent was removed by filter paper. Measurements
were performed on a Jeol 1400 electron microscope with 120 kV acceleration voltage.

`CCCCCCCCCCCCCCCC(=O)N[C@@H](C)C(=O)NCC(=O)N[C@@H](C)C(=O)NCC(=O)N[C@@H](CCCNC(=N)N)C(=O)N[C@@H](CCCNC(=N)N)C(=O)N[C@@H](CCCNC(=N)N)C(N)=O` [C16-AGAGRRR-NH2] (Palmitoyl-AGAGRRR-NH2): the “infectivity enhancement of HIV-1 (in words)” value (“infectivity enhancement” below) in series [1] is given as “Inactive”. In addition, the “formation of µm-sized aggregates (in words)” value (from here on “formation … (in words)”) in series [2] is “not forming µm-sized aggregates and forming too few/less aggregates, respectively; also recorded: cannot form µm‐sized aggregates”.
On to `CCCCCCCCCCCCCCCC(=O)N[C@@H](CCCNC(=N)N)C(=O)N[C@@H](CCCNC(=N)N)C(=O)N[C@@H](Cc1c[nH]c2ccccc12)C(=O)N[C@@H](CCC(N)=O)C(=O)N[C@@H](Cc1c[nH]c2ccccc12)C(=O)N[C@@H](CCCNC(=N)N)C(N)=O` [C16-RRWQWR-NH2] (Palmitoyl-RRWQWR-NH2), for which the “infectivity enhancement” value in series [1] is given as “Inactive”. Moreover, the “formation … (in words)” value in series [2] is “not forming µm-sized aggregates and forming too few/less aggregates, respectively; also recorded: cannot form µm‐sized aggregates”.
Turning to `CC(C)[C@H](NC(=O)OCC1c2ccccc2-c2ccccc21)C(=O)N[C@H](C(=O)N[C@H](C(=O)N[C@@H](C)C(=O)N[C@@H](C)C(=O)N[C@@H](C)C(=O)N[C@@H](CCCCN)C(=O)N[C@@H](CCCCN)C(=O)N[C@@H](CCCCN)C(N)=O)C(C)C)C(C)C` (Fmoc-VVVAAAKKK-NH2), the “infectivity enhancement” value in series [1] was “active”. For the same molecule, the “degradability by cells (in words)” value with HeLa cells was “cannot be degraded by cells”. In addition, the “morphology of peptide assemblies / fibril formation (TEM)” value in series [3] is “forming fibrils”. The “formation … (in words)” value in series [2] was “very large”.
In the case of `CCCCCCCCCCCCCCCC(=O)N[C@@H](CCCCN)C(=O)NCC(=O)N[C@H](C(=O)N1CCC[C@H]1C(=O)NCC(=O)N[C@H](C(=O)NCC(=O)N[C@@H](CCCCN)C(N)=O)C(C)C)C(C)C` (Palmitoyl-KGVPGVGK-NH2), in series [1], the “infectivity enhancement” value is given as “Inactive”. The “morphology of peptide assemblies / fibril formation (TEM)” value in series [3] is listed as “not forming fibrils; also recorded: cannot self‐assemble into fibrils”. Besides, the “formation … (in words)” value in series [2] is “not forming µm-sized aggregates and forming too few/less aggregates, respectively”.
For the molecule `CC/C=C\C/C=C\C/C=C\C/C=C\C/C=C\CCCC(=O)N[C@H](C(=O)N[C@H](C(=O)N[C@H](C(=O)N[C@@H](C)C(=O)N[C@@H](C)C(=O)N[C@@H](C)C(=O)N[C@@H](CCCCN)C(=O)N[C@@H](CCCCN)C(=O)N[C@@H](CCCCN)C(N)=O)C(C)C)C(C)C)C(C)C` (X2-VVVAAAKKK-NH2), the “degradability by cells (in words)” value with HeLa cells is “degradable PA”. In addition, the “average size of aggregates” value in the series on HeLa cells (Proteostat-stained PA with HeLa cells, confocal aggregate analysis) was 6-7 µm2. Moreover, the “morphology of peptide assemblies / fibril formation (TEM)” value in series [3] is given as “structures composed of fibrillar structures”.
`CCCCCCCCCCCCCCCC(=O)NCC(=O)NCC(=O)N[C@H](C(=O)N[C@H](C(=O)N[C@@H](CCCNC(=N)N)C(=O)N[C@@H](CCCNC(=N)N)C(N)=O)C(C)C)C(C)C` [C16-GGVVRR-NH2] (Palmitoyl-GGVVRR-NH2): in series [1], the “infectivity enhancement” value is reported as “Inactive”. For the same molecule, the “formation … (in words)” value in series [2] is “not forming µm-sized aggregates and forming too few/less aggregates, respectively; also recorded: cannot form µm‐sized aggregates”.
As for `CCCCCCCCCCCC(=O)N[C@H](C(=O)N[C@H](C(=O)N[C@H](C(=O)N[C@@H](C)C(=O)N[C@@H](C)C(=O)N[C@@H](C)C(=O)N[C@@H](CCCCN)C(=O)N[C@@H](CCCCN)C(=O)N[C@@H](CCCCN)C(N)=O)C(C)C)C(C)C)C(C)C` [C12] (Lauroyl-VVVAAAKKK-NH2), in series [1], the “infectivity enhancement” value was “efficient infectivity enhancement”. For the same molecule, the “degradability by cells (in words)” value with HeLa cells is reported as “partially degraded”. In series [2], the “formation … (in words)” value is “large aggregate formation”.
As for `CCCCCCCCCCCCCCCC(=O)NCC(=O)N[C@@H](CCCCN)C(=O)N[C@H](C(=O)NCC(=O)N[C@@H](CO)C(=O)N[C@@H](CCCCN)C(N)=O)C(C)C` [C16-GKVGSK-NH2] (Palmitoyl-GKVGSK-NH2), the “infectivity enhancement” value in series [1] is “Inactive”. The “formation … (in words)” value in series [2] is “cannot form µm‐sized aggregates”.
As for `CCCCCCCCCCCCCCCC(=O)N[C@@H](Cc1c[nH]c2ccccc12)C(=O)N[C@@H](CCC(=O)O)C(=O)N[C@@H](C)C(=O)N[C@@H](CC(C)C)C(=O)N[C@@H](CCCCN)C(=O)N[C@@H](CCCCN)C(N)=O` [C16-WEALKK-NH2] (Palmitoyl-WEALKK-NH2), in series [1], the “infectivity enhancement” value is given as “Inactive”. The “morphology of peptide assemblies / fibril formation (TEM)” value in series [3] was “not forming fibrils; also recorded: cannot self‐assemble into fibrils”. The “formation … (in words)” value in series [2] was “not forming µm-sized aggregates and forming too few/less aggregates, respectively”.
